Legend:
Format in all cases: in vivo
[1] = system: Rhipicephalus microplus larvae (strain Parkhurst, resistant against synthetic pyrethroids); assay: Rhipicephalus (Boophilus) microplus in-vitro contact test, larval cattle tick; conditions: after 48 hours, read-out: activity (efficacy: larvae dead or moribund); for pest or weed control at 100 g/ha: application rate 1 pg/cm^2 (=100 g/ha); for pest or weed control at 500 g/ha: application rate 5 pg/cm^2 (=500 g/ha)
Description: Rhipicephalus (Boophilus) microplus—In-Vitro Contact Tests Larval Cattle Tick (Strain Parkhurst. Resistant Against Synthetic Pyrethroids)
9 mg compound is solved in 1 mL acetone and diluted with acetone to the desired concentration. 250 μL of the test solution is filled in 25 mL glass test tubes and homogeneously distributed on the inner walls by rotation and tilting on a shaking device (2 h at 30 rpm). With a compound concentration of 900 ppm, an inner surface of 44.7 cm^2 and a homogeneous distribution, a dose of 5 μg/cm^2 is achieved.
After the solvent has evaporated, each test tube is filled with 20-50 cattle tick larvae (Rhipicephalus microplus), closed with a perforated lid and incubated in a horizontal position at 85% relative humidity and 27° C. in an incubator. After 48 hours efficacy is determined. The larvae are patted on the ground of the tubes and negative geotactic behaviour is recorded.
An efficacy of 100% means all larvae are dead or moribund; 0% means no larvae are dead or moribund.

[2] = system: adult engorged female ticks (Rhipicephalus microplus); assay: Rhipicephalus (Boophilus) microplus injection test; conditions: 168 h, egg deposition after 7 days, read-out: activity (efficacy: infertile eggs); for pest or weed control at 4 pg: application rate 4 pg/animal; for pest or weed control at 0.02 mg: application rate 20 μg/animal
Description: Rhipicephalus (Boophilus) microplus—Injection Test
(§1) Solvent: dimethyl sulfoxide
To produce a suitable preparation of active compound, 10 mg of active compound are dissolved in 0.5 mL solvent, and the concentrate is diluted with solvent to the desired concentration.
Five adult engorged female ticks (Rhipicephalus microplus) are injected with 1 μL compound solution into the abdomen. The ticks are transferred into replica plates and incubated in a climate chamber.
After 7 days egg deposition of fertile eggs is monitored. Eggs where fertility is not visible are stored in a climate chamber till hatching after about 42 days. An efficacy of 100% means all eggs are infertile; 0% means all eggs are fertile.

[3] = system: fall armyworm larvae (Spodoptera frugiperda); assay: Spodoptera frugiperda spray test; conditions: 168 h, read-out: activity (mortality)
Description: Spodoptera frugiperda—Spray Test
Solvent: 78.0 parts by weight acetone • 1.5 parts by weight dimethylformamide
(§2) Emulsifier: alkylarylpolyglycol ether
(§3) To produce a suitable preparation of active compound, 1 part by weight of active compound is mixed with the stated amount of solvents and is diluted with water, containing an emulsifier concentration of 1000 ppm, to the desired concentration. Further test concentrations are prepared by dilution with emulsifier containing water.
Maize (Zea mays) leaf sections are sprayed with a preparation of the active ingredient of the desired concentration. Once dry, the leaf sections are infested with fall armyworm larvae (Spodoptera frugiperda).
After 7 days mortality in % is determined. 100% means all caterpillars have been killed and 0% means none of the caterpillars have been killed.

[4] = system: adult unfed cat fleas (Ctenocephalides felis); assay: Ctenocephalides felis oral test; conditions: 48 h, read-out: activity (mortality)
Description: Ctenocephalides felis—Oral Test
as §1
To produce a suitable preparation of active compound, 10 mg of active compound are dissolved in 0.5 mL solvent, and the concentrate is diluted with cattle blood to the desired concentration.
Approximately 20 adult unfed cat fleas (Ctenocephalides felis) are placed in flea chambers. The blood chamber, sealed with parafilm on the bottom, are filled with cattle blood supplied with compound solution and placed on the gauze covered top of the flea chamber, so that the fleas are able to suck the blood. The blood chamber is heated to 37° C. whereas the flea chamber is kept at room temperature.
After 2 days mortality in % is determined. 100% means all the fleas have been killed; 0% means none of the fleas have been killed.

[5] = system: Aedes aegypti strain MONHEIM; assay: Aedes aegypti test (AEDSAE surface treatment & contact assay); conditions: 24 hours after contact, read-out: efficacy (mortality); for mortality at 4 mg/m2: surface concentration 4 mg/m^2, exposure 30 minutes
Description: Aedes aegypti Test (AEDSAE Surface Treatment & Contact Assay)
Solvent: Aceton+2000 ppm rapeseed oil methyl ester (RME)
In order to produce a sufficient, active ingredient containing solution it is necessary to solve the test compound in the solvent-mix (acetone at 2 mg/ml/RME 2000 ppm). This solution is pipetted onto a glazed tile and after evaporation of the acetone, adult mosquitoes of the species Aedes aegypti strain MONHEIM are placed onto the dried surface. The exposure time is 30 minutes. Mortality in percent (%) is determined 24 hours after contact of the insects to the treated surface. 100% mortality means that all tested insects are dead, whereas 0% means that no insect died.

[6] = system: larvae of the banded cucumber beetle (Diabrotica balteata); assay: Diabrotica balteata spray test; conditions: 168 h, after 7 days, read-out: activity (efficacy: seedlings grown); for pest or weed control at 100 g/ha: application rate 100 g/ha (=32 pg/well); for pest or weed control at 500 g/ha: application rate 500 g/ha (=160 pg/well)
Description: Diabrotica balteata—spray test
(§4) Solvent: 78.0 parts by weight of acetone • • 1.5 parts by weight of dimethylformamide
as §2
as §3, with “solvent,” for “solvents”, “and the concentrate” for “and”
Soaked wheat seeds (Triticum aestivum) are placed in a multiple well plate filled with agar and some water and are incubated for 1 day to germinate (5 seeds per well). The germinated wheat seeds are sprayed with a test solution containing the desired concentration of the active ingredient. Afterwards each unit is infected with 10-20 larvae of the banded cucumber beetle (Diabrotica balteata).
After 7 days efficacy in % is determined. 100% means all the seedlings have grown up like in the untreated, uninfected control; 0% means none of the seedlings have grown.

[7] = system: green peach aphid (Myzus persicae); assay: Myzus persicae oral test; conditions: 120 h, application rate 4 ppm, after 5 days
Description: Solvent: 100 parts by weight acetone
To produce a suitable preparation of active compound, 1 part by weight of active compound is mixed with the stated amount of solvent, and the concentrate is diluted with water to the desired concentration.
50 μL compound solution is filled in microtiter plates and 150 μL IPL41 insect medium (33%+15% sugar) is added to obtain a total volume of 200 μL per well. Afterwards the plates are sealed with parafilm through which a mixed population of the green peach aphid (Myzus persicae) can suck on the compound preparation.
After 5 days mortality in % is determined. 100% means all aphids have been killed and 0% means none of the aphids have been killed.

[8] = system: larvae of the southern green stink bug (Nezara viridula); assay: Nezara viridula spray test; conditions: 96 h, application rate 500 g/ha, after 4 days
Description: Nezara viridula—Spray Test
as §4, §2
as §3, with “solvent,” for “solvents”, “and the concentrate” for “and”
Barley plants (Hordeum vulgare) infested with larvae of the southern green stink bug (Nezara viridula) are sprayed with a test solution containing the desired concentration of the active ingredient.
After 4 days mortality in % is determined. 100% means all the stink bugs have been killed; 0% means none of the stink bugs have been killed.

| Compound | pest or weed control at 100 g/ha [1] [%] | pest or weed control at 500 g/ha [1] [%] | pest or weed control at 4 pg [2] [%] | pest or weed control at 0.02 mg [2] [%] | mortality at 500 g/ha [3] [%] | mortality at 100 ppm [4] [%] | mortality at 4 mg/m2 [5] [%] | pest or weed control at 100 g/ha [6] [%] | pest or weed control at 500 g/ha [6] [%] | mortality at 100 g/ha [3] [%] | mortality at 4 ppm [7] [%] | mortality at 20 mg/m2 ([5]; surface concentration 20 mg/m^2, exposure 30 minutes) [%] | mortality at 500 g/ha [8] [%] |
| --- | --- | --- | --- | --- | --- | --- | --- | --- | --- | --- | --- | --- | --- |
| CCCc1nc([C@H](C)NC(=O)c2cc(Cl)cc(C3CC3)c2)n(-c2ccc(C#N)cn2)n1 [I-1] | 100 | 100 | 100 | 100 | 100 | 100 | 80 to 100 | 100 | 100 | – | – | – | – |
| CC(NC(=O)c1cc(Cl)cc(S(C)(=O)=O)c1)c1nc(C(F)F)nn1-c1ccc(C#N)cn1 (stereo not drawn) [I-6] | 100 | 100 | 100 | 100 | 100 | 100 | – | – | – | 83 | 100 | – | – |
| COc1nc([C@H](C)NC(=O)c2csc(Cl)c2)n(-c2ccc(C#N)cn2)n1 [I-8] | – | – | 80 | 100 | – | 80 | 80 to 100 | 80 | 100 | – | – | 80 to 100 | – |
| CCOc1nc([C@H](C)NC(=O)c2cc(Cl)cc(S(C)(=O)=O)c2)n(-c2ccc(C#N)cn2)n1 [I-9] | 100 | 100 | 100 | 100 | 100 | 100 | – | – | 100 | 100 | 100 | – | – |
| C[C@H](NC(=O)c1cc(Cl)cc(S(=O)(=O)CC(F)(F)F)c1)c1nc(C2CC2)nn1-c1ncc(Cl)cn1 [I-26] | 90 | 90 | 100 | 100 | – | 100 | – | 100 | – | – | 90 | – | – |
| CC(NC(=O)c1cc(Cl)cc(S(C)(=O)=O)c1)c1nc(Br)nn1-c1ccc(Cl)cn1 (stereo not drawn) [I-28] | 100 | 100 | 100 | 100 | 100 | 100 | – | 100 | 100 | 100 | 90 | – | 100 |

From patent US20260206761A1, “HETEROARYL-TRIAZOLE COMPOUNDS AS PESTICIDES” (Bayer Aktiengesellschaft, priority 2019, published 2026)
